Consider 13 molecules from patent US9708336B2, “Metallo-beta-lactamase inhibitors” (priority 2014, dated 2017).

Like-named read-outs stand apart in the source and are kept apart here.

For experiment [1], the target named is NDM-1 (Klebsiella pneumoniae, UniProt C7C422). The experiment in a line: biochemical. Type of experiment: biochemical. The settings on record: NDM-1 enzyme, CCF2-FA fluorescence assay; read-out: NDM-1 IC50.
For experiment [2], the target named is IMP-1 (Serratia marcescens, UniProt P52699). The experiment in a line: biochemical. Type of experiment: biochemical. The settings on record: IMP-1 enzyme, CCF2-FA fluorescence assay; read-out: IMP-1 IC50.
IMP-1, sequence (P52699 whole entry, looked up): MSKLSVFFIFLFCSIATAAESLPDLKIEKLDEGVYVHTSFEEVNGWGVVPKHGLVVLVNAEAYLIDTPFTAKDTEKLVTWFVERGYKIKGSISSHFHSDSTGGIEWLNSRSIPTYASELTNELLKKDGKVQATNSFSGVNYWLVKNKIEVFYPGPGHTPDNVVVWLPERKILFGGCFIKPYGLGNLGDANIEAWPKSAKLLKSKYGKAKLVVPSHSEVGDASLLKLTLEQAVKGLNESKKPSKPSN
The test system of experiment [3] is Escherichia coli expressing NDM-1 (CLB30016). The experiment in a line: Antibiotic potentiation activity: synergistic concentration (MITC95) with imipenem, OD600 growth. The following applies: Escherichia coli expressing NDM-1 (CLB30016), 95% growth inhibition. Format: cell-based. The method in brief:
(§1)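 Absorbance after a 22–24 h, 35 °C incubation served as the read-out. Wells held bacteria (saline suspension diluted 1:100 into 1.1× CAMHB), imipenem at 4 μg/ml final or optionally 1 μg/ml, and test compound.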

The subject of experiment [4] is Klebsiella pneumoniae expressing VIM-1 (IHMA599644). Described as above. Type of experiment: cell-based. The settings on record: Klebsiella pneumoniae expressing VIM-1 (IHMA599644), 95% growth inhibition. The method in brief:
as §1

The subject of experiment [5] is Serratia marcescens expressing IMP-1 (CL5741). The experiment is described as above. Type of experiment: cell-based. The following applies: Serratia marcescens expressing IMP-1 (CL5741), 95% growth inhibition. The gist of the method:
as §1

For experiment [6], the target named is VIM-1 (Pseudomonas aeruginosa (strain ATCC 15692 / DSM 22644 / CIP 104116 / JCM 14847 / LMG 12228 / 1C / PRS 101 / PAO1), UniProt A0A0F7KYQ8). Description: Enzyme activity: determination of IC50, fluorescence assay with CCF2-FA substrate (VIM-1). Format: biochemical. The following applies: CCF2-FA fluorescence assay.
[7] abbreviates: VIM-1 enzyme, read-out: VIM-1 IC50.

NDM-1, sequence (C7C422 whole entry, looked up, species assumed): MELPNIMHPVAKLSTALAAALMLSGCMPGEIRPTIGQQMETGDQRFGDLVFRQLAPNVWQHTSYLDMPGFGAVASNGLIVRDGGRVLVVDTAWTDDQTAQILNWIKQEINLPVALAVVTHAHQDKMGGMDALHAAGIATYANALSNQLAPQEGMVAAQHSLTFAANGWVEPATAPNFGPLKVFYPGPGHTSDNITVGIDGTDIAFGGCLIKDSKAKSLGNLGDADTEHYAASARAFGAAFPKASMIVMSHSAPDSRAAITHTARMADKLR

`NS(=O)(=O)c1c(CC[C@H]2CC[C@H](N)CC2)ccc(-c2ccc(C3CCNCC3)cc2)c1-c1nn[nH]n1` [Example 461, 4-(2-((1r,4s)-4-aminocyclohexyl)ethyl)-4′-(piperidin-4-yl)-2-(2H-tetrazol-5-yl)-[1,1′-biphenyl]-3-sulfonamide]: the IC50 in experiment [1] is 1.92 nM; in experiment [2], 4.07 nM; in experiment [6] (setting [7]) it was 1.67 nM. Further, the “Escherichia coli MITC95” value in experiment [3] was determined as 1.563 µM. In addition, in experiment [4], the “Klebsiella pneumoniae MITC95” value was 4.688 µM. Also, in experiment [5], the “Serratia marcescens MITC95” value came out at 1.563 µM.
For the molecule `NS(=O)(=O)c1c(CC[C@H]2CC[C@@H](N)CC2)ccc(-c2ccc(C3CCNCC3)cc2)c1-c1nn[nH]n1` [Example 462, 4-(2-((1s,4r)-4-aminocyclohexyl)ethyl)-4′-(piperidin-4-yl)-2-(2H-tetrazol-5-yl)-[1,1′-biphenyl]-3-sulfonamide], the concentration for half-maximal inhibition (IC50) in experiment [1] was found to be 3.8 nM; in experiment [2], 11.5 nM; in experiment [6] (setting [7]), 8.13 nM. In addition, in experiment [3], the “Escherichia coli MITC95” value was determined as 0.7813 µM. In experiment [4], the “Klebsiella pneumoniae MITC95” value is 18.75 µM. In experiment [5], the “Serratia marcescens MITC95” value was determined as 1.563 µM.
In the case of `NS(=O)(=O)c1c(CC2(F)CCNCC2)ccc(-c2ccc(C3CCNCC3)cc2)c1-c1nn[nH]n1` [Example 464, 4-((4-fluoropiperidin-4-yl)methyl)-4′-(piperidin-4-yl)-2-(2H-tetrazol-5-yl)-[1,1′-biphenyl]-3-sulfonamide], the IC50 in experiment [1] was found to be 3.82 nM; in experiment [2], 18.7 nM; in experiment [6] (setting [7]) it was 1.95 nM. In addition, the “Escherichia coli MITC95” value in experiment [3] came to 0.7813 µM. In addition, the “Klebsiella pneumoniae MITC95” value in experiment [4] came out at 1.563 µM. The “Serratia marcescens MITC95” value in experiment [5] came to 1.563 µM.
In the case of `NS(=O)(=O)c1c(CC2CCNCC2(F)F)ccc(-c2ccc(C3CCNCC3)cc2)c1-c1nn[nH]n1` (stereo not drawn) [Example 465, 4-((3,3-difluoropiperidin-4-yl)methyl)-4′-(piperidin-4-yl)-2-(2H-tetrazol-5-yl)-[1,1′-biphenyl]-3-sulfonamide], the IC50 in experiment [1] is 2.7 nM; in experiment [2], 3.31 nM; in experiment [6] (setting [7]), 1.64 nM. The “Escherichia coli MITC95” value in experiment [3] stood at 3.125 µM. For the same molecule, the “Klebsiella pneumoniae MITC95” value in experiment [4] turned out to be 12.5 µM. The “Serratia marcescens MITC95” value in experiment [5] came out at 3.125 µM.
`NS(=O)(=O)c1c(CCC2CNC2)ccc(-c2ccc(C3CCNCC3)cc2)c1-c1nn[nH]n1` [Example 466, 4-(2-(azetidin-3-yl)ethyl)-4′-(piperidin-4-yl)-2-(2H-tetrazol-5-yl)-[1,1′-biphenyl]-3-sulfonamide]: the IC50 in experiment [1] is 10.5 nM; in experiment [2] it was 54.6 nM; in experiment [6] (setting [7]), 3.72 nM. Further, the “Escherichia coli MITC95” value in experiment [3] is 0.7813 µM. Moreover, the “Klebsiella pneumoniae MITC95” value in experiment [4] was determined as 1.563 µM. For the same molecule, the “Serratia marcescens MITC95” value in experiment [5] amounted to 1.563 µM.
Turning to `NS(=O)(=O)c1c(CC2(F)CCNC2)ccc(-c2ccc(C3CCNCC3)cc2)c1-c1nn[nH]n1` (stereo not drawn) [Example 467, 4-((3-fluoropyrrolidin-3-yl)methyl)-4′-(piperidin-4-yl)-2-(2H-tetrazol-5-yl)-[1,1′-biphenyl]-3-sulfonamide], the IC50 in experiment [1] was determined as 10.2 nM; in experiment [2] it was 34.8 nM; in experiment [6] (setting [7]) it was 4.75 nM. In experiment [3], the “Escherichia coli MITC95” value was determined as 0.7813 µM. In addition, the “Klebsiella pneumoniae MITC95” value in experiment [4] came to 1.563 µM. For the same molecule, the “Serratia marcescens MITC95” value in experiment [5] turned out to be 1.563 µM.
In the case of `NS(=O)(=O)c1c(CC2CCNC2)ccc(-c2ccc(C3CCNCC3)cc2)c1-c1nn[nH]n1` (stereo not drawn) [Example 468, 4′-(piperidin-4-yl)-4-(pyrrolidin-3-ylmethyl)-2-(2H-tetrazol-5-yl)-[1,1′-biphenyl]-3-sulfonamide], the figures for the IC50 in experiment [1], in experiment [2] and in experiment [6] (setting [7]) were 9.95 nM, 13.5 nM and 3.81 nM, respectively. For the same molecule, in experiment [3], the “Escherichia coli MITC95” value was found to be 0.7813 µM. In experiment [4], the “Klebsiella pneumoniae MITC95” value is 1.563 µM. In addition, the “Serratia marcescens MITC95” value in experiment [5] is 1.563 µM.
On to `NS(=O)(=O)c1c(CC2CNC2)ccc(-c2ccc(C3CCNCC3)cc2)c1-c1nn[nH]n1` [Example 469, 4-(azetidin-3-ylmethyl)-4′-(piperidin-4-yl)-2-(2H-tetrazol-5-yl)-[1,1′-biphenyl]-3-sulfonamide], for which the half-inhibitory concentration (IC50) was found to be 10.7 nM in experiment [1], 29.7 nM in experiment [2] and 7.65 nM in experiment [6] (setting [7]). Further, in experiment [3], the “Escherichia coli MITC95” value was 0.7813 µM. Further, in experiment [4], the “Klebsiella pneumoniae MITC95” value came to 1.563 µM. The “Serratia marcescens MITC95” value in experiment [5] came to 1.563 µM.
In the case of `NS(=O)(=O)c1c(CC2CCNCC2)ccc(-c2ccc(C3CCN(CC4CNC4)CC3)cc2)c1-c1nn[nH]n1` [Example 470, 4′-(1-(azetidin-3-ylmethyl)piperidin-4-yl)-4-(piperidin-4-ylmethyl)-2-(2H-tetrazol-5-yl)-[1,1′-biphenyl]-3-sulfonamide], the 50% inhibitory concentration (IC50) is 27 nM in experiment [1], 3.23 nM in experiment [2] and 101 nM in experiment [6] (setting [7]). Further, in experiment [3], the “Escherichia coli MITC95” value was 0.7813 µM. In addition, the “Klebsiella pneumoniae MITC95” value in experiment [4] was 12.5 µM. Besides, the “Serratia marcescens MITC95” value in experiment [5] came out at 1.563 µM.
Consider `NS(=O)(=O)c1c(CC2CCN(CC3CNC3)CC2)ccc(-c2ccc(C3CCNCC3)cc2)c1-c1nn[nH]n1` [Example 471, 4-((1-(azetidin-3-ylmethyl)piperidin-4-yl)methyl)-4′-(piperidin-4-yl)-2-(2H-tetrazol-5-yl)-[1,1′-biphenyl]-3-sulfonamide], for which the IC50 in experiment [1] was determined as 2.72 nM; in experiment [2], 8.68 nM; in experiment [6] (setting [7]), 2.05 nM. Further, the “Escherichia coli MITC95” value in experiment [3] came out at 0.7813 µM. The “Klebsiella pneumoniae MITC95” value in experiment [4] worked out at 1.563 µM. The “Serratia marcescens MITC95” value in experiment [5] is 1.563 µM.
Take `N=C(N)NC1CCC(CCc2ccc(-c3ccc(C4CCN(C(=N)N)CC4)cc3)c(-c3nn[nH]n3)c2S(N)(=O)=O)CC1` (stereo not drawn) [Example 472, 4-(4′-(2-(4-guanidinocyclohexyl)ethyl)-3′-sulfamoyl-2′-(2H-tetrazol-5-yl)-[1,1′-biphenyl]-4-yl)piperidine-1-carboximidamide]: the half-maximal inhibitory concentration (IC50) was 0.505 nM in experiment [1]; 0.661 nM in experiment [2]; 13.4 nM in experiment [6] (VIM-1 IC50, VIM-1 enzyme). Besides, the “Escherichia coli MITC95” value in experiment [3] was determined as 1.172 µM. Besides, the “Klebsiella pneumoniae MITC95” value in experiment [4] turned out to be 75 µM. Also, in experiment [5], the “Serratia marcescens MITC95” value is 0.7813 µM.
Take `NS(=O)(=O)c1c(CCC(F)(F)F)ccc(-c2ccc(C3CCNCC3)cc2)c1-c1nn[nH]n1` [Example 473, 4′-(piperidin-4-yl)-2-(2H-tetrazol-5-yl)-4-(3,3,3-trifluoropropyl)-[1,1′-biphenyl]-3-sulfonamide]: the values for the IC50 in experiment [1], in experiment [2] and in experiment [6] (setting [7]) were 4.47 nM, 7.3 nM and 1.42 nM, respectively. Further, the “Escherichia coli MITC95” value in experiment [3] was found to be 4.688 µM. Besides, the “Klebsiella pneumoniae MITC95” value in experiment [4] was 4.688 µM. Moreover, the “Serratia marcescens MITC95” value in experiment [5] worked out at 0.5859 µM.
`NS(=O)(=O)c1c(C(F)(F)F)ccc(-c2cnc3cc[nH]c3c2)c1-c1nnn[nH]1` [Example 474, 3-(1H-pyrrolo[3,2-b]pyridin-6-yl)-2-(1H-tetrazol-5-yl)-6-(trifluoromethyl)benzenesulfonamide]: the values for the IC50 in experiment [1], in experiment [2] and in experiment [6] (setting [7]) were 0.523 nM, 3.91 nM and 0.549 nM, respectively. Besides, in experiment [3], the “Escherichia coli MITC95” value is 0.09375 µM. Also, the “Klebsiella pneumoniae MITC95” value in experiment [4] turned out to be 1.531 µM. The “Serratia marcescens MITC95” value in experiment [5] came out at 0.4453 µM.

In general, IC50 refers to the midpoint of a concentration-inhibition curve.
